Patent US4585773A, “Isoindolinyl-alkyl-piperazines” (Bristol-Myers Company, priority 1984, dated 1986)
Like-named read-outs stand apart in the source and are kept apart here.

Legend:
[1] = conscious rat diuretic screen of Lipschitz (Table I); assay type: in vivo, rat (female Sprague Dawley; male Okamoto-Aoki); conditions: female Sprague Dawley rats; for response vs control in vivo at 3 mg/kg / response vs control in vivo at 30 mg/kg: Rattus norvegicus, po
Description: With respect to diuretic utility there can be mentioned the conscious rat diuretic screen of Lipschitz, et al. (J. Pharmacol. Exp. Therap. 79, 97-110 (1943)). In this test, dose response assays of diuretic, natruiretic and kaliuretic activity are determined by oral administration of the test substance. The compounds synthesized in Examples I-XI were tested for diuretic […]. The compound of Example I was tested as its monohydrochloride 2-propanolate hydrate, i.e. as C22 […] ClN4 O4 S.HCl. 0.2(CH3)2 CHOH.0.15H2 O. Testing was carried out by the diuretic screen of Lipschitz, et al. described previously. In Table I below Volume Ratio is the ratio of total volume excreted for the test comuound compared to the total volume excreted for the control, Na^+ Ratio is the Na^+ excreted for the test compound compared to the Na^+ excreted for the control, K^+ Ratio is the K^+ excreted for the test compound compared to the K^+ excreted for the control. Female Sprague Dawley rats were used in Test Nos. 1, 2, 6, 7, 11-29. Male Okamoto-Aoki rats were used in Test Nos. 3-5 and 8-10 and testing for antihypertensive activity was carried out simultaneously on the Test Nos. 3-5 rats. In some instances, compounds were retested at the same dose level.

[2] = tested on: α blocking activity (phenylephrine); test: in vivo α blocking activity, phenylephrine (PE) as α-agonist (Table III); parameters: species or system rat; ED50: unit not given beside the values
Description: (§1) In this example the compounds of Examples I (modified), II, III, V, VI, VII, VIII, IX and XI were tested in rats for in vivo α blocking activity according to methodology described at page 312 of Deitchman, et al., Journal of Pharmacological Methods, 3, 311-321 (1980). In this test phenylephrine (PE below) or norepinephrine (NE below) was administered as an α-agonist to the rats before and after dosing with the test drug and the average interpolated dose or PE/NE effecting a 50 mm Hg increase in mean arterial blood pressure was determined. Table III below records the results. In such Table, ED50 stands for such average interpolated dose and Average Dose Shift stands for the average ratio of ED50 after drug administration to ED50 before drug administration. The compound of Example I was tested as its monochloride 2-propanolate hydrate, i.e. as C22 H27 ClN4 O4 S.HCl 0.2(CH3)2 CHOH.0.15H2 O in Tests 1-5 and as the 3/4 mole hydrochloride, i.e. C22 H27 ClN 4 O4 S.3/4HCL in Tests 2a and 3a. The route was intravenous except in the case of the runs of Test Nos. 2a, 3, 3a, 26-29 the route was oral.

[3] = tested on: α blocking activity (norepinephrine); test: in vivo α blocking activity, norepinephrine (NE) as α-agonist (Table III); parameters: species or system rat; conditions: ED50 after/before drug
Description: as §1

[4] = tested on: Spontaneously Hypertensive rat; test: antihypertensive activity, Spontaneously Hypertensive Rat (Table II); assay type: in vivo
Description: Spontaneously Hypertensive Rat Male rats weighing 300-400 g, previously conditioned to the procedure, are prewarmed in a heating chamber (30° C.) for 10-20 min. and subsequently restrained in a wire holder at that temperature. Systolic blood pressure and heart rate are measured by the tailcuff technique using a pneumatic pulse transducer and a biotachometer before, and 2, 4, and 24 hours after oral administration of vehicle (0.25% Methocel in water) or test compounds suspended in vehicle at a dose volume equivalent to 5 ml/kg. Blood pressure and heart rate data are reported as changes from zero-hour measurements with vehicle control groups run periodically to confirm that the vehicle has no effect. Testing was carried out on the compounds of Examples I-XII for antihypertensive activity. In the case of all the compounds testing was carried out on the Spontaneously Hypertensive rat as described hereinbefore. In the case of the compounds of Examples I-IV testing was also carried out on the DOCA-salt Hypertensive Rat. The compound of Example I was tested as its monochloride 2-propanolate hydrate, i.e. as C22 […] ClN4 O4 S.HCl.0.2(CH3)2 CHOH.0.15H2 O in Tests 1-5; and as the 3/4 mole hydrochloride, i.e. C22 […] ClN4 O4 S: 3/4 HCl in Tests 3a, 4a, 5a-5d. Test results are set forth in Table II below wherein SHR stands for Spontaneously Hypertensive rat, DOCA stands for DOCA-salt Hypertensive Rat, ΔBP stands for the change in systolic blood pressure in mm Hg, ΔHR stands for the change in mean heart rate in beats per minute and the times set forth are the times after dosing. A peak change in ΔBP of more than 20 is considered as indicating activity.

[5] = diuretic properties compared to prazosin, acute (1-day) and chronic (5-day), conscious rats; assay type: in vivo, rat (female Sprague-Dawley); conditions: 3.0 mg/kg, by mouth
Description: In this Example the compound of Example I as the hydrochloride salt containing 3/4 mol of HCl instead of 1 mol HCl, i.e. […] Studies were conducted with conscious, 150-200 g, female Sprague-Dawley rats (Charles River Labs, Wilmington, MA) using the protocol of Hanson et al., Mineral Elect. Metab., 8: 314-324 (1982). Animals were maintained in stainless steel gang cages in temperature-controlled rooms with a 12-hour light, 12-hour dark cycle and provided Purina Rodent Lab Chow, with water ad libitum. All animals were fasted 18 hours prior to acute (first-day) dosing and water was withheld during the experiment. […] Groups of ten animals (2/cage) were studied. A controlled (non-drug) group comprised of an equal number of animals was included. Test drugs were suspended in 0.25% methocel-saline (0.9% NaCl) and administered orally by stomach intubation at the doses mentioned above. The oral fluid load volume containing the respective drug dose was uniformly maintained at 25 ml/kg; controls received in methocel-saline vehicle only. Urine was collected over a 5-hour period from rats housed in metabolism cages (2 rats per cage); one specimen consisted of the pooled sample collected from each cage. The urine volume (ml) excreted by each pair of rats was measured and electrolyte (Na, K, Cl, Ca, P) concentrations were determined with an AAII Autoanalyzer (Technicon) employing established procedures. At the end of the acute (1-day) phase, each pair of rats was returned to a separate cage (2/cage) and provided both food and water. On the following three days, each animal received its respective drug methocel-saline load via a stomach intubation. On the fifth day (after an 18-hour fast) all rats were again treated and placed in metabolism cages (2 rats/cage) for a 5-hour urine collection (chronic-effect: 5-day).

[6] = background statement; cited from earlier work
[7] = tested on: Spontaneously Hypertensive rat; conditions: Suzuki et al.; cited from earlier work
[8] = chronic administration (5-days)

SMILES: COc1ccccc1N1CCN(CCCCN2Cc3cc(Cl)c(S(N)(=O)=O)cc3C2=O)CC1 [Example XI, 6-Chloro-2,3-dihydro-2-[4-[4-(2-methoxyphenyl)-1-piperazinyl]butyl]-3-oxo-1H-isoindole-5-sulfonamide]
- Urinary Na/K (Test Compound) ([1]; 3 mg/kg oral): 3.09
- Urinary Na/K (Test Compound) ([1]; 30 mg/kg oral): 2.62
- response vs control in vivo at 3 mg/kg ([1]; 3 mg/kg oral, read-out: K+ Ratio): 111%
- response vs control in vivo at 3 mg/kg ([1]; 3 mg/kg oral, read-out: Na+ Ratio): 113%
- response vs control in vivo at 3 mg/kg ([1]; 3 mg/kg oral, read-out: Volume Ratio): 108%
- response vs control in vivo at 30 mg/kg ([1]; 30 mg/kg oral, read-out: K+ Ratio): 137%
- response vs control in vivo at 30 mg/kg ([1]; 30 mg/kg oral, read-out: Na+ Ratio): 117%
- response vs control in vivo at 30 mg/kg ([1]; 30 mg/kg oral, read-out: Volume Ratio): 94%
- in vivo α blocking activity (in words) ([2]; conclusion from Table III): active as in vivo α blockers
- ED50 ([2]; iv): 375
- Average Dose Shift ([3]; dose 0.3, intravenous): 5 ± 0.5
- Average Dose Shift ([3]; dose 1.0, intravenous): 27 ± 28
- Average Dose Shift ([3]; dose 3, intravenous): 63 ± 19
- ΔBP 2 hours ([4]; SHR, 30 mg/kg oral): -94 ± 10 mm Hg
- ΔBP 4 hours ([4]; SHR, 30 mg/kg oral): -60 ± 21 mm Hg
- ΔHR 2 hours ([4]; SHR, 30 mg/kg oral): -2 ± 8 beats per minute
- ΔHR 4 hours ([4]; SHR, 30 mg/kg oral): -22 ± 14 beats per minute
- antihypertensive effect (in words) ([4]; conclusion from Table II (SHR, and DOCA for Examples I-IV)): good antihypertensive effect without significantly affecting heart rate

SMILES: COc1ccccc1N1CCN(CCCN2Cc3cc(Cl)c(S(N)(=O)=O)cc3C2=O)CC1 [MJ15037-1A, 6-chloro-2,3-dihydro-2-[3-[4-(2-methoxyphenyl)-1-piperazinyl]propyl]-3-oxo-1H-isoindole-5-sulfonamide]
- natriuretic/diuretic activity (in words) ([5]; acute treatment (1-day)): no natriuretic/diuretic activity
- chlorouresis, increase over control [5, 8]: 31%
- natriuresis, increase over control [5, 8]: 32%

SMILES: COc1cc2nc(N3CCN(C(=O)c4ccco4)CC3)nc(N)c2cc1OC [Prazosin, prazosin]
- antihypertensive and diuretic activity (in words) [6]: a very active antihypertensive agent has antidiuretic activity

SMILES: NS(=O)(=O)c1cc2c(cc1Cl)CN(C1CCCCC1)C2=O [chlorexolone]
- effects in the spontaneously hypertensive rat (in words) [7]: favorable effects
- antihypertensive and diuretic activity (in words) [6]: diuretic and hypertensive activity

SMILES: NS(=O)(=O)c1cc2c(cc1C(F)(F)F)NCNS2(=O)=O [hydroflumethiazide]
- effects in the spontaneously hypertensive rat (in words) [7]: favorable effects

SMILES: Nc1nc(N)c2nc(-c3ccccc3)c(N)nc2n1 [triamterene]
- effects in the spontaneously hypertensive rat (in words) [7]: favorable effects
